The series deals with Hepatotoxicity. Briefly: Literature-mined public compounds from Greene et al multi-species hepatotoxicity modelling dataset.

Consider `C[C@H](CS)C(=O)N1CCC[C@H]1C(=O)O` [CAPTOPRIL], for which the Hepatotoxicity entry is given as “HH: Evidence of human hepatotoxicity”.
In the case of `NC(=O)N1c2ccccc2C=Cc2ccccc21` [CARBAMAZEPINE], the Hepatotoxicity entry is given as “HH: Evidence of human hepatotoxicity”.
The same measure for `COC(=O)Nc1nc2ccccc2[nH]1` [CARBENDAZIM]: “AH: Evidence for animal hepatotoxicity but not tested in humans”; for `CC1(C)[C@@H](OC(=O)CCC(=O)[O-])CC[C@]2(C)[C@H]3C(=O)C=C4[C@@H]5C[C@@](C)(C(=O)[O-])CC[C@]5(C)CC[C@@]4(C)[C@]3(C)CC[C@@H]12.[Na+].[Na+]` [CARBENOXOLONE SODIUM]: “NE: No evidence of hepatotoxicity in any species”.
For the compound `C[C@@](Cc1ccc(O)c(O)c1)(NN)C(=O)O.O` [CARBIDOPA], the Hepatotoxicity result is recorded as “NE: No evidence of hepatotoxicity in any species”.
Take `ClC(Cl)(Cl)Cl` [CARBON TETRACHLORIDE]: the Hepatotoxicity result is “HH: Evidence of human hepatotoxicity”.
`CC1=C(C(=O)O)N2C(=O)[C@@H](NC(=O)[C@H](N)c3ccc(O)cc3)[C@H]2SC1` [CEFADROXIL]: the Hepatotoxicity result was “HH: Evidence of human hepatotoxicity”.
The same measure for `Cn1nnnc1SCC1=C(C(=O)[O-])N2C(=O)[C@@H](NC(=O)[C@H](O)c3ccccc3)[C@H]2SC1.[Na+]` [CEFAMANDOLE SODIUM]: “HH: Evidence of human hepatotoxicity”; for `CCN1CCN(C(=O)N[C@@H](C(=O)N[C@@H]2C(=O)N3C(C(=O)O)=C(CSc4nnnn4C)CS[C@H]23)c2ccc(O)cc2)C(=O)C1=O.O.O` [CEFOPERAZONE DIHYDRATE]: “NE: No evidence of hepatotoxicity in any species”.
Take `CO[C@@]1(NC(=O)C2SC(=C(C(N)=O)C(=O)O)S2)C(=O)N2C(C(=O)O)=C(CSc3nnnn3C)CS[C@@H]21` (stereo partly drawn) [CEFOTETAN]: the Hepatotoxicity entry was “NE: No evidence of hepatotoxicity in any species”.
With `CN(C)CCn1nnnc1SCC1=C(C(=O)O)N2C(=O)[C@@H](NC(=O)Cc3csc(N)n3)[C@H]2SC1.Cl.Cl` [CEFOTIAM HYDROCHLORIDE], the Hepatotoxicity entry is “HH: Evidence of human hepatotoxicity”.
As to `CO[C@@]1(NC(=O)Cc2cccs2)C(=O)N2C(C(=O)O)=C(COC(N)=O)CS[C@@H]21` [CEFOXITIN], the Hepatotoxicity entry is on record as “HH: Evidence of human hepatotoxicity”.
The result for `CC(C)(O/N=C(\C(=O)N[C@@H]1C(=O)N2C(C(=O)[O-])=C(C[n+]3ccccc3)CS[C@H]12)c1csc(N)n1)C(=O)O` [CEFTAZIDIME] reads “WE: Weak evidence (<10 case reports) of human hepatotoxicity”; that for `O=C(Cc1cccs1)N[C@@H]1C(=O)N2C(C(=O)[O-])=C(C[n+]3ccccc3)CS[C@H]12` [CEPHALORIDINE], “AH: Evidence for animal hepatotoxicity but not tested in humans”; that for `CC(=O)OCC1=C(C(=O)[O-])N2C(=O)[C@@H](NC(=O)Cc3cccs3)[C@H]2SC1.[Na+]` [CEPHALOTHIN SODIUM], “HH: Evidence of human hepatotoxicity”.
The result for `CC(=O)OCC1=C(C(=O)[O-])N2C(=O)[C@@H](NC(=O)CSc3ccncc3)[C@H]2SC1.[Na+]` [CEPHAPIRIN SODIUM] reads “NE: No evidence of hepatotoxicity in any species”; that for `CC1=C(C(=O)O)N2C(=O)[C@@H](NC(=O)[C@H](N)C3=CCC=CC3)[C@H]2SC1` [CEPHRADINE], “NE: No evidence of hepatotoxicity in any species”; that for `COCc1c(C(C)C)nc(C(C)C)c(/C=C/[C@@H](O)C[C@@H](O)CC(=O)O)c1-c1ccc(F)cc1` [CERIVASTATIN], “HH: Evidence of human hepatotoxicity”.
The same measure for `C[C@H](CCC(=O)O)[C@H]1CC[C@H]2[C@@H]3[C@H](O)C[C@@H]4C[C@H](O)CC[C@]4(C)[C@H]3CC[C@]12C` [CHENODIOL]: “HH: Evidence of human hepatotoxicity”.
Turning to `CCCCCCCCCCCCCCCC(=O)OC[C@@H](NC(=O)C(Cl)Cl)[C@H](O)c1ccc([N+](=O)[O-])cc1` [CHLORAMPHENICOL PALMITATE], the Hepatotoxicity entry is recorded as “HH: Evidence of human hepatotoxicity”.
Consider `ClC(Cl)Cl` [CHLOROFORM], for which the Hepatotoxicity entry is given as “AH: Evidence for animal hepatotoxicity but not tested in humans”.
The result for `CCN(CC)CCCC(C)Nc1ccnc2cc(Cl)ccc12.O=P(O)(O)O.O=P(O)(O)O` (stereo not drawn) [CHLOROQUINE PHOSPHATE] reads “WE: Weak evidence (<10 case reports) of human hepatotoxicity”; that for `CN(C)CCC(c1ccc(Cl)cc1)c1ccccn1.O=C(O)/C=C\C(=O)O` (stereo not drawn) [CHLORPHENIRAMINE MALEATE], “HH: Evidence of human hepatotoxicity”.
The same measure for `CN(C)CCCN1c2ccccc2Sc2ccc(Cl)cc21` [CHLORPROMAZINE]: “HH: Evidence of human hepatotoxicity”.
In the case of `CCCNC(=O)NS(=O)(=O)c1ccc(Cl)cc1` [CHLORPROPAMIDE], the Hepatotoxicity result is “HH: Evidence of human hepatotoxicity”.
Take `CN(C)[C@@H]1C(O)=C(C(N)=O)C(=O)[C@@]2(O)C(O)=C3C(=O)c4c(O)ccc(Cl)c4[C@@](C)(O)[C@H]3C[C@@H]12.Cl` [CHLORTETRACYCLINE HYDROCHLORIDE]: the Hepatotoxicity entry is “HH: Evidence of human hepatotoxicity”.
Regarding `Cc1cc(C2CCCCC2)n(O)c(=O)c1` [CICLOPIROX], the Hepatotoxicity result is “NE: No evidence of hepatotoxicity in any species”.
The result for `CC1(COc2ccc(CC3SC(=O)NC3=O)cc2)CCCCC1` (stereo not drawn) [CIGLITAZONE] reads “HH: Evidence of human hepatotoxicity”.
Take `CN/C(=N/CCSCc1nc[nH]c1C)NC#N` [CIMETIDINE]: the Hepatotoxicity result is reported as “WE: Weak evidence (<10 case reports) of human hepatotoxicity”.
`O=C(O)c1cc(-c2ccccc2)nc2ccccc12` [CINCHOPHEN]: the Hepatotoxicity result is listed as “HH: Evidence of human hepatotoxicity”.
Turning to `CC(C)(Oc1ccc(C2CC2(Cl)Cl)cc1)C(=O)O` (stereo not drawn) [CIPROFIBRATE], the Hepatotoxicity result is reported as “HH: Evidence of human hepatotoxicity”.
In the case of `COc1cc(N)c(Cl)cc1C(=O)NC1CCN(CCCOc2ccc(F)cc2)CC1OC` (stereo not drawn) [CISAPRIDE], the Hepatotoxicity result is “NE: No evidence of hepatotoxicity in any species”.
As to `CN(C)CCCC1(c2ccc(F)cc2)OCc2cc(C#N)ccc21` (stereo not drawn) [CITALOPRAM], the Hepatotoxicity result was “WE: Weak evidence (<10 case reports) of human hepatotoxicity”.
In the case of `C[N+](C)(C)CCOP(=O)(O)OP(=O)([O-])OC[C@H]1O[C@@H](n2ccc(N)nc2=O)[C@H](O)[C@@H]1O` [CITICOLINE], the Hepatotoxicity result is recorded as “NE: No evidence of hepatotoxicity in any species”.
Turning to `Nc1nc(Cl)nc2c1ncn2[C@H]1C[C@H](O)[C@@H](CO)O1` [CLADRIBINE], the Hepatotoxicity entry is on record as “NE: No evidence of hepatotoxicity in any species”.
As to `CC[C@H]1OC(=O)[C@H](C)[C@@H](O[C@H]2C[C@@](C)(OC)[C@@H](O)[C@H](C)O2)[C@H](C)[C@@H](O[C@@H]2O[C@H](C)C[C@H](N(C)C)[C@H]2O)[C@](C)(OC)C[C@@H](C)C(=O)[C@H](C)[C@@H](O)[C@]1(C)O` [CLARITHROMYCIN], the Hepatotoxicity entry is on record as “HH: Evidence of human hepatotoxicity”.
On to `CN1CCC[C@@H]1CCO[C@](C)(c1ccccc1)c1ccc(Cl)cc1.O=C(O)/C=C/C(=O)O` [CLEMASTINE FUMARATE], for which the Hepatotoxicity result is on record as “NE: No evidence of hepatotoxicity in any species”.
Take `NC1CCN(c2c(F)cc3c(=O)c(C(=O)O)cn(C4CC4)c3c2Cl)C1` (stereo not drawn) [CLINAFLOXACIN]: the Hepatotoxicity result was “WE: Weak evidence (<10 case reports) of human hepatotoxicity”.
For `CCC[C@@H]1C[C@@H](C(=O)N[C@@H]([C@H]2O[C@H](SC)[C@H](O)[C@@H](O)[C@H]2O)[C@H](C)Cl)N(C)C1.Cl` [CLINDAMYCIN HYDROCHLORIDE], the Hepatotoxicity entry is on record as “HH: Evidence of human hepatotoxicity”.
For `CCOC(=O)C(C)(C)Oc1ccc(Cl)cc1` [CLOFIBRATE], the Hepatotoxicity entry is listed as “HH: Evidence of human hepatotoxicity”.
With `CN(C)CCCN1c2ccccc2CCc2ccc(Cl)cc21` [CLOMIPRAMINE], the Hepatotoxicity result is given as “HH: Evidence of human hepatotoxicity”.
Regarding `Cl.Clc1cccc(Cl)c1NC1=NCCN1` [CLONIDINE HYDROCHLORIDE], the Hepatotoxicity result is “HH: Evidence of human hepatotoxicity”.
As to `Clc1ccccc1C(c1ccccc1)(c1ccccc1)n1ccnc1` [CLOTRIMAZOLE], the Hepatotoxicity entry was “WE: Weak evidence (<10 case reports) of human hepatotoxicity”.
Turning to `Cc1onc(-c2ccccc2Cl)c1C(=O)N[C@@H]1C(=O)N2[C@@H]1SC(C)(C)[C@@H]2C(=O)[O-].O.[Na+]` [CLOXACILLIN SODIUM], the Hepatotoxicity entry was “HH: Evidence of human hepatotoxicity”.
The same measure for `CN1CCN(C2=Nc3cc(Cl)ccc3Nc3ccccc32)CC1` [CLOZAPINE]: “HH: Evidence of human hepatotoxicity”; for `COc1cc2c(c(OC)c1OC)-c1ccc(OC)c(=O)cc1[C@@H](NC(C)=O)CC2` [COLCHICINE]: “WE: Weak evidence (<10 case reports) of human hepatotoxicity”; for `O=C(O)c1cc(=O)c2c(OCC(O)COc3cccc4oc(C(=O)O)cc(=O)c34)cccc2o1` [CROMOLYN]: “NE: No evidence of hepatotoxicity in any species”.
Regarding `CN1CCN(C(c2ccccc2)c2ccccc2)CC1` [CYCLIZINE], the Hepatotoxicity entry is “HH: Evidence of human hepatotoxicity”.
For the compound `O=P1(N(CCCl)CCCl)NCCCO1` (stereo not drawn) [CYCLOPHOSPHAMIDE ANHYDROUS], the Hepatotoxicity entry is reported as “HH: Evidence of human hepatotoxicity”.
For the compound `CN1CCC(=C2c3ccccc3C=Cc3ccccc32)CC1.Cl` [CYPROHEPTADINE HYDROCHLORIDE], the Hepatotoxicity result is “HH: Evidence of human hepatotoxicity”.
For the compound `CC(=O)O[C@]1(C(C)=O)CC[C@H]2[C@@H]3C=C(Cl)C4=CC(=O)[C@@H]5C[C@@H]5[C@]4(C)[C@H]3CC[C@@]21C` [CYPROTERONE ACETATE], the Hepatotoxicity result is listed as “AH: Evidence for animal hepatotoxicity but not tested in humans”.
For the compound `C=C(C)[C@H]1CC=C(C)CC1` [D-LIMONENE], the Hepatotoxicity result is given as “AH: Evidence for animal hepatotoxicity but not tested in humans”.
Regarding `CN(C)/N=N/c1[nH]cnc1C(N)=O` [DACARBAZINE], the Hepatotoxicity entry is reported as “HH: Evidence of human hepatotoxicity”.

The record behind these values is ChEMBL document CHEMBL1697692, “Developing structure-activity relationships for the prediction of hepatotoxicity” (Chem Res Toxicol, 2010).
